Data published in PubChem BioAssay AID1996.
In brackets after ≈: the same amount, converted by molar mass.

Settings: buffer; pH 7.4; 200.0 µM
Compound `COc1cc(SC)ccc1C(=O)OCC(=O)NC1CCCCC1` has a solubility kinetic of 2.2 µg/mL (≈ 6.52 µM).
`C=CCNc1nc(S(=O)Cc2ccc(C)cc2)nc2c1CCCC2` (centres undefined) gave a solubility kinetic greater than 51.2 µg/mL.
Work on `Nc1ccn(C2CC(O)C(CO)O2)c(=O)n1` (centres undefined) yielded a solubility kinetic greater than 34.1 µg/mL.
`CCC(=O)Oc1ccc(C2NC(=O)c3ccccc3O2)cc1OC` (centres undefined) showed a solubility kinetic of 28.5 µg/mL (≈ 87.1 µM).
Work on `Cc1ccsc1C(=O)Nc1nccs1` yielded a solubility kinetic greater than 33.6 µg/mL.
`Cc1ccc(/C=C/C(=O)NCCc2ccccc2)o1` showed a solubility kinetic of 33.9 µg/mL (≈ 133 µM).
`CCOC(=O)c1ccc(N=Cc2c(O)c3ccccc3oc2=O)cc1` gave a solubility kinetic of 4.7 µg/mL (≈ 13.9 µM).
Compound `Cc1ccc(C)c(NC(=O)CCc2ccc(C)o2)c1` has a solubility kinetic of 24.6 µg/mL (≈ 95.6 µM).
With `Cc1ccccc1NC(=S)NCCSc1ccc(Cl)cc1` the solubility kinetic was 3.3 µg/mL (≈ 9.79 µM).
In the case of `CC1(C)CCC(=O)N(c2ccc(OC(F)(F)F)cc2)C1=O`, the solubility kinetic is reported as greater than 45.2 µg/mL.
Work on `O=C(Nc1cccc(O)c1)c1cc(-c2ccccc2Cl)on1` yielded a solubility kinetic of 0.8 µg/mL (≈ 2.54 µM).
In the case of `CC1(C)CC2=C(CO1)C(=S)NC(c1ccccc1)N2CC1CCCO1` (centres undefined), the solubility kinetic is reported as 45.3 µg/mL (≈ 126 µM).
With `Cl.O=C(COc1ccc(F)cc1)NCCCn1ccnc1` the solubility kinetic was 39.1 µg/mL.
For `COc1ccccc1N1CCN(CCN2C(=O)C3CCCCN3C2=O)CC1` (centres undefined), the solubility kinetic was 40.8 µg/mL (≈ 110 µM).
For `O=C(c1cc(COc2ccc(F)cc2F)on1)N1CCSCC1`, the solubility kinetic was 35.8 µg/mL (≈ 105 µM).
`CCSc1nnc(NC(=O)c2nc3nc(C)cc(C)n3n2)s1` gave a solubility kinetic greater than 50.3 µg/mL.
`CC(=O)c1ccc(NC(=O)COC(=O)Cn2cnc3ccccc32)cc1` showed a solubility kinetic greater than 52.7 µg/mL.
For `NS(=O)(=O)c1ccc(NC(=O)c2cccc3ccccc23)cc1`, the solubility kinetic was 3.1 µg/mL (≈ 9.5 µM).
Compound `COc1ccc(CNC(=O)c2cc(=O)c3cc(C)ccc3o2)cc1` has a solubility kinetic of less than 0.7 µg/mL.
Compound `C=CCNC(=O)CN1c2cccc3cccc(c23)S1(=O)=O` has a solubility kinetic of 40.4 µg/mL (≈ 134 µM).
For `Cc1ccc2nc(N3CCOCC3)c(C=O)cc2c1`, the solubility kinetic was 25.8 µg/mL (≈ 101 µM).
Compound `Cc1ccc(F)cc1NC(=O)/C=C/c1ccc(S(=O)(=O)N2CCOCC2)cc1` has a solubility kinetic of 1.8 µg/mL (≈ 4.45 µM).
With `O=C(O)c1ccccc1NS(=O)(=O)c1ccc2ccccc2c1` the solubility kinetic was greater than 49.1 µg/mL.
`Cc1cc(=O)[nH]c(-c2ccc(Cl)cc2)n1` gave a solubility kinetic greater than 33.1 µg/mL.
With `O=S(=O)(Nc1ccc(C(F)(F)F)cn1)c1ccccc1` the solubility kinetic was 45.3 µg/mL (≈ 150 µM).
`COCCCNC(=O)/C(C#N)=C/c1cc(C)[nH]c1C` gave a solubility kinetic greater than 39.2 µg/mL.
Work on `O=C(NCC1CCCO1)c1cc2cc(Cl)ccc2[nH]1` (centres undefined) yielded a solubility kinetic of 17 µg/mL (≈ 61 µM).
With `COc1ccccc1OCC(O)COC(N)=O` (centres undefined) the solubility kinetic was 29.9 µg/mL (≈ 124 µM).
`CCOc1ccccc1N1CCN(C(=O)c2ccc3nc(N)sc3c2)CC1` gave a solubility kinetic of 7.5 µg/mL (≈ 19.6 µM).
`C=CCn1c(-c2ccc(Cl)cc2)cnc1SC(C)C(N)=O` (centres undefined) showed a solubility kinetic of 7.1 µg/mL (≈ 22.1 µM).
`CCN1CCN(Cc2nnc(-c3ccc(C)cc3)o2)CC1` showed a solubility kinetic greater than 43 µg/mL.
Compound `COc1ccc(CCNC(=O)CCNC(=O)c2ccco2)cc1OC` has a solubility kinetic of 48.7 µg/mL (≈ 141 µM).
With `O=C(CNC(=O)c1ccccc1F)OCc1nc2ccccc2s1` the solubility kinetic was 48.6 µg/mL (≈ 141 µM).
For `CC(NC(=O)CCC(=O)NCc1ccc(F)cc1)c1ccccc1` (centres undefined), the solubility kinetic was greater than 49.3 µg/mL.
`COc1ccc(C(=O)O)cc1S(=O)(=O)NCc1cccnc1` gave a solubility kinetic greater than 48.4 µg/mL.
In the case of `N#Cc1ccc(C(=O)NC(=S)NC2CCCCC2)cc1`, the solubility kinetic is reported as 21.9 µg/mL (≈ 76.2 µM).
`CCC(CO)NCc1sccc1C` (centres undefined) showed a solubility kinetic of 26.6 µg/mL (≈ 133 µM).
Compound `CN1CCN(c2c(/C=N/O)c3ccccc3n2C)CC1` has a solubility kinetic greater than 40.9 µg/mL.
For `O=C(/C=C/c1cccc(F)c1)N1CCN(c2ncccn2)CC1`, the solubility kinetic was 12.4 µg/mL (≈ 39.7 µM).
Work on `CCCCCCC(Cl)(Cn1ccnc1)c1ccccc1.O=[N+]([O-])O` (centres undefined) yielded a solubility kinetic of 35.3 µg/mL.
With `CCOCCCNC(=O)C1c2ccccc2Oc2ccccc21` the solubility kinetic was 13.6 µg/mL (≈ 43.7 µM).
Work on `Cc1ccccc1Cn1c(-c2ccc(=O)[nH]c2)nc2ccccc21` yielded a solubility kinetic of 27.8 µg/mL (≈ 88.1 µM).
In the case of `O=C(Nc1nccs1)c1ccc(Cl)c([N+](=O)[O-])c1`, the solubility kinetic is reported as 6.9 µg/mL (≈ 24.3 µM).
For `COc1ccccc1N1C(=O)CSC1=S`, the solubility kinetic was 3.4 µg/mL (≈ 14.2 µM).
